The results in this text go back to patent publication US9637473B2, “Acrylamide derivatives as antimalarial agents” (priority 2013, dated 2017).

The structures appear in SMILES notation.

This assay relates to P. Falciparum NF54. Description: Plasmodium falciparum in vitro assay ([3H]-hypoxanthine incorporation). The class given is cell-based. To be noted: Plasmodium falciparum, Erythrocyte, P. Falciparum NF54, erythrocytic stages in human red blood cells, 50% human serum. A digest of the protocol: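 Activity against the blood stages of Plasmodium falciparum growing in human red blood cells was measured by how much [3H]-hypoxanthine the parasites took up. Filters were dried, sealed in plastic foil containing 10 mL of scintillation fluid, and read on a Betaplate liquid scintillation counter. IC50 values came from sigmoidal inhibition curves fitted in Microsoft Excel.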
In the case of `CN(c1ccncc1)c1ccc(CN(C(=O)/C=C/c2ccc(C(F)(F)F)cc2)C2CCN(Cc3ccc(C(F)(F)F)cc3)CC2)cc1` [Example 3, (E)-N-[4-(Methyl-pyridin-4-yl-amino)-benzyl]-N-[1-(4-trifluoromethyl-benzyl)-piperidin-4-yl]-3-(4-trifluoromethyl-phenyl)-acrylamide], the IC50 (usually the midpoint of a concentration-inhibition curve) is 72 nM.

Molecule `CN(c1ccncc1)c1ccc(CN(C(=O)/C=C/c2ccc(C(F)(F)F)cc2)C2CCN(C3CCCC3)C2)cc1` (racemic) [Example 99, (±)-(E)-N-(1-Cyclopentyl-pyrrolidin-3-yl)-N-[4-(methyl-pyridin-4-yl-amino)-benzyl]-3-(4-trifluoromethyl-phenyl)-acrylamide] registered an IC50 of 43 nM.

On to `Cc1c(/C=C/C(=O)N(Cc2ccc(N(C)c3ccncc3)cc2)C2CCN(Cc3ccccc3)CC2)cnn1C` [Example 164, (E)-N-(1-Benzyl-piperidin-4-yl)-3-(1,5-dimethyl-1H-pyrazol-4-yl)-N-[4-(methyl-pyridin-4-yl-amino)-benzyl]-acrylamide], for which the half-inhibitory concentration (IC50) stood at 368 nM.

On to `CN1CCC(N(C)c2ccc(CN(C(=O)/C=C/c3ccc(C(F)(F)F)cc3)C3CCN(Cc4ccccc4)CC3)cc2)CC1` [Example 177, (E)-N-(1-Benzyl-piperidin-4-yl)-N-{4-[methyl-(1-methyl-piperidin-4-yl)-amino]-benzyl}-3-(4-trifluoromethyl-phenyl)-acrylamide], for which the IC50 is 238 nM.

`CCN1CCC(N(Cc2ccc(N(C)c3ccncc3)cc2)C(=O)/C=C/c2ccc(C(F)(F)F)cc2)CC1` [Example 7, (E)-N-(1-Ethyl-piperidin-4-yl)-N-[4-(methyl-pyridin-4-yl-amino)-benzyl]-3-(4-trifluoromethyl-phenyl)-acrylamide]: the IC50 was determined as 26 nM.

In turn, `Cc1cc(Nc2ccc(CN(C(=O)/C=C/c3ccc(Cl)cc3)C(C)CN(C)C)cc2)ccn1` (stereo not shown) [Example 209, (E)-3-(4-Chloro-phenyl)-N-(2-dimethylamino-1-methyl-ethyl)-N-[4-(2-methyl-pyridin-4-ylamino)-benzyl]-acrylamide] returned an IC50 of 172 nM.

On to `Cc1cc(Nc2ccc(CN(C(=O)/C=C/c3ccc(C(F)(F)F)cc3)C3CCN(C4CCN(C)CC4)CC3)cc2)ccn1` [Example 116, (E)-N-(1′-Methyl-[1,4′]bipiperidinyl-4-yl)-N-[4-(2-methyl-pyridin-4-ylamino)-benzyl]-3-(4-trifluoromethyl-phenyl)-acrylamide], for which it took 70 nM to reach half-maximal inhibition (IC50).
